# Reference: BindingDB's records for doi:10.7270/Q29P301W (University of Pittsburgh, 2006)
# Molecular target: T1, Dual specificity protein phosphatase 6 (Rattus norvegicus, UniProt Q64346)
# T1 sequence (Q64346 whole entry): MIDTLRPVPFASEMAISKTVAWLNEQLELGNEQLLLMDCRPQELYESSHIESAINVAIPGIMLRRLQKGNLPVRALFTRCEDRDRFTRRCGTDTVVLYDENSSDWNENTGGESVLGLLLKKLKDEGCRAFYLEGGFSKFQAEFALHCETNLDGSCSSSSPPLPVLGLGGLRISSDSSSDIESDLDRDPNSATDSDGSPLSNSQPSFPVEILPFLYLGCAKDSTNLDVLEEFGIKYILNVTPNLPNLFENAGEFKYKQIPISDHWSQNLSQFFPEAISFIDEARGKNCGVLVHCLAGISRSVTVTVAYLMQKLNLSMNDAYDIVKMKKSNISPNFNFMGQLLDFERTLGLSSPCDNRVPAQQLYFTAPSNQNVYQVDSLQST
# Experiment: Confirmatory specificity testing of DUSP6 inhibitors, biochemical, cell-free, concentration series (AID 452)
row,Compound,IC50 [µM]
1,"CCn1nc(-c2ccccc2)nc2c(=O)n(C)c(=O)nc1-2 [1-Ethyl-6-methyl-3-phenyl-1H-pyrimido[5,4-e][1,2,4]triazine-5,7-dione]",0.159
2,"CC(C)Cn1c(N)c(C(=O)COC(=O)c2cc(-c3ccco3)nc3ccccc23)c(=O)n(C)c1=O [2-(2-furanyl)-4-quinolinecarboxylic acid [2-[4-amino-1-methyl-3-(2-methylpropyl)-2,6-dioxo-5-pyrimidinyl]-2-oxoethyl] ester]",> 50
3,COc1ccc(Cn2c(C)nc3c(c2=O)c2nc4ccccc4nc2n3Cc2ccco2)cc1 [MLS000079944],41.2
4,"CCCCC[C@H](O)C=C[C@H]1C=CC(=O)[C@@H]1C/C=C\CCCC(=O)O [(Z)-7-[(1R,5S)-2-oxidanylidene-5-[(E,3S)-3-oxidanyloct-1-enyl]cyclopent-3-en-1-yl]hept-5-enoic acid]",> 50
5,Cc1ccc2c(c1C)NC(C(=O)O)C1CC=CC21 (stereo not given),> 50
